{
  "source": "patent US20230048678A1",
  "about": "“ICAN DERIVATIVES FOR ANTIFUNGAL USE” (DEBRECENI EGYETEM, priority 2019, published 2023)",
  "assay_type_in_all_cases": "cell-based",
  "key": {"[1]": {"tested_on": "C. parapsilosis ATCC 22019", "assay": "CLSI broth microdilution susceptibility (Table 1)", "settings": "48 h, 35° C.; for MICPI: partial (50%) inhibition; for MICTI: total inhibition", "procedure": "(§1) ICAN has 3 key moieties, namely the amino, naphthalene and isonitrile. To find out which ones of them are essential for the antifungal behavior and to design more efficient derivatives, comparative studies were carried out, where one of the moieties was exchanged or eliminated. All ICAN derivatives were tested against C. albicans SC5314, C. krusei ATCC 6258 and C. parapsilosis ATCC 22019. The antifungal agents were dissolved in 100% DMSO and diluted further in RPMI-1640 (with L-glutamine but without bicarbonate) and buffered to pH 7.0 with 0.165 M morpholinopropanesulfonic acid (MOPS). MICs were read visually after 48-h incubation at 35° C. using the partial (50%) inhibition (for ICAN derivatives) (PI) and total inhibition (for AMB and ICAN derivatives) (TI) criteria. MICs were determined at least twice.\n(§2) The tested C. albicans, C. tropicalis, C. parapsilosis, C. glabrata and C. krusei ATCC strains and clinical isolates are listed in Table 2. MICs were determined according to the CLSI M27-A3 [22]. Antifungal agents were dissolved in 100% DMSO and diluted further in RPMI-1640 (with L-glutamine but without bicarbonate) (Sigma, Budapest, Hungary), and buffered to pH 7.0 with 0.165 M morpholinopropanesulfonic acid (MOPS; Sigma, Budapest, Hungary). The final concentration ranges used for AMB and ICAN derivatives were 0.125 to 4 μg/ml and 0.04 to 20 μg/ml, respectively. Yeast cell suspensions were prepared in RPMI 1640 medium and were adjusted to give a final inoculum concentration of 0.5×10^3 to 2.5×10^3 cells/ml. MICs were read visually after 48-h incubation at 35° C. using the partial (50%) inhibition (for ICAN derivatives) (PI) and total inhibition (for AMB and ICAN derivatives) (TI) criteria. MICs were determined at least twice. For amphotericin B isolates with MIC values of ≤2 mg/L were considered wild-types. [Pfaller M A, 2012]"}, "C. krusei ATCC 6258": {"tested_on": "C. krusei ATCC 6258", "assay": "CLSI broth microdilution susceptibility (Table 1)", "settings": "48 h, 35° C.; for MICPI: partial (50%) inhibition; for MICTI: total inhibition", "procedure": "as §1, §2"}, "C. albicans SC5314": {"tested_on": "C. albicans SC5314", "assay": "CLSI broth microdilution susceptibility (Table 1)", "settings": "48 h, 35° C.; for MICPI: partial (50%) inhibition; for MICTI: total inhibition", "procedure": "as §1, §2"}, "[2]": {"tested_on": "C. albicans SC5314, C. krusei ATCC 6258 and C. parapsilosis ATCC 22019", "assay": "CLSI broth microdilution, MIC summarised over the three Candida test strains", "settings": "for MICTI: value or range over the three Candida strains of Table 1, total inhibition", "procedure": "as §1, §2"}, "human cell cultures": {"tested_on": "human cell cultures", "assay": "MTT bio assay cytotoxicity", "settings": "MTT bio assay technique"}},
  "data": [
    {"molecule": "[C-]#[N+]c1cccc2c(N)cccc12", "note": "[ICAN, 1-amino-5-isocyanonaphthalene]", "values": [
      {"measurement": "MICPI", "setting": "[1]", "value": 0.3, "unit": "µg/mL"},
      {"measurement": "MICTI", "setting": "[1]", "value": 0.6, "unit": "µg/mL"},
      {"measurement": "MICPI", "setting": "C. krusei ATCC 6258", "value": 0.6, "unit": "µg/mL"},
      {"measurement": "MICTI", "setting": "C. krusei ATCC 6258", "value": 2.5, "unit": "µg/mL"},
      {"measurement": "MICPI", "setting": "C. albicans SC5314", "value": 1.25, "unit": "µg/mL"},
      {"measurement": "MICTI", "setting": "C. albicans SC5314", "value": 5, "unit": "µg/mL"},
      {"measurement": "MICTI", "setting": "[2]", "value": "0.6 to 5", "unit": "µg/mL"},
      {"measurement": "LD50", "setting": "human cell cultures", "value": 10, "unit": "µg/mL"}
    ]},
    {"molecule": "Nc1cccc2c(N)cccc12", "note": "[DAN, 1,5-diaminonaphthalene, reference compound]", "values": [
      {"measurement": "MICPI", "setting": "[1]", "value": 50, "unit": "µg/mL"},
      {"measurement": "MICTI", "setting": "[1]", "value": 100, "unit": "µg/mL"},
      {"measurement": "MICPI", "setting": "C. krusei ATCC 6258", "value": 50, "unit": "µg/mL"},
      {"measurement": "MICTI", "setting": "C. krusei ATCC 6258", "value": 100, "unit": "µg/mL"},
      {"measurement": "MICPI", "setting": "C. albicans SC5314", "value": 50, "unit": "µg/mL"},
      {"measurement": "MICTI", "setting": "C. albicans SC5314", "value": 100, "unit": "µg/mL"}
    ]},
    {"molecule": "[C-]#[N+]c1cccc2c(NCCC)cccc12", "note": "[PICAN, N-(prop-1-yl)-1-amino-5-isocyanonaphthalene]", "values": [
      {"measurement": "MICPI", "setting": "[1]", "value": 0.6, "unit": "µg/mL"},
      {"measurement": "MICTI", "setting": "[1]", "value": 1.75, "unit": "µg/mL"},
      {"measurement": "MICPI", "setting": "C. krusei ATCC 6258", "value": 0.15, "unit": "µg/mL"},
      {"measurement": "MICTI", "setting": "C. krusei ATCC 6258", "value": 2.5, "unit": "µg/mL"},
      {"measurement": "MICPI", "setting": "C. albicans SC5314", "value": 0.6, "unit": "µg/mL"},
      {"measurement": "MICTI", "setting": "C. albicans SC5314", "value": 2.5, "unit": "µg/mL"},
      {"measurement": "MICTI", "setting": "[2]", "value": "1.75-2. μg/ml"}
    ]},
    {"molecule": "[C-]#[N+]c1cccc2c(NCC)cccc12", "note": "[EICAN, N-ethyl-1-amino-5-isocyanonaphthalene]", "values": [
      {"measurement": "MICPI", "setting": "[1]", "value": 0.6, "unit": "µg/mL"},
      {"measurement": "MICTI", "setting": "[1]", "value": 1.25, "unit": "µg/mL"},
      {"measurement": "MICPI", "setting": "C. krusei ATCC 6258", "value": 0.6, "unit": "µg/mL"},
      {"measurement": "MICTI", "setting": "C. krusei ATCC 6258", "value": 1.25, "unit": "µg/mL"},
      {"measurement": "MICPI", "setting": "C. albicans SC5314", "value": 0.6, "unit": "µg/mL"},
      {"measurement": "MICTI", "setting": "C. albicans SC5314", "value": 2.5, "unit": "µg/mL"},
      {"measurement": "MICTI", "setting": "[2]", "value": "1.25 to 2.5", "unit": "µg/mL"}
    ]},
    {"molecule": "[C-]#[N+]c1cccc2c([N+]#[C-])cccc12", "note": "[DIN, 1,5-diisocyanonaphthalene]", "values": [
      {"measurement": "MICPI", "setting": "[1]", "value": 0.3, "unit": "µg/mL"},
      {"measurement": "MICTI", "setting": "[1]", "value": 0.6, "unit": "µg/mL"},
      {"measurement": "MICPI", "setting": "C. krusei ATCC 6258", "value": 0.3, "unit": "µg/mL"},
      {"measurement": "MICTI", "setting": "C. krusei ATCC 6258", "value": 0.6, "unit": "µg/mL"},
      {"measurement": "MICPI", "setting": "C. albicans SC5314", "value": 0.3, "unit": "µg/mL"},
      {"measurement": "MICTI", "setting": "C. albicans SC5314", "value": 0.6, "unit": "µg/mL"},
      {"measurement": "MICPI", "setting": "[2]; value or range over the three Candida strains of Table 1, partial (50%) inhibition", "value": 0.3, "unit": "µg/mL"},
      {"measurement": "MICTI", "setting": "[2]", "value": 0.6, "unit": "µg/mL"}
    ]},
    {"molecule": "[C-]#[N+]c1ccc([N+]#[C-])cc1", "note": "[PDI, 1,4-phenylenediisocyanide, reference compound]", "values": [
      {"measurement": "MICPI", "setting": "[1]", "value": 50, "unit": "µg/mL"},
      {"measurement": "MICTI", "setting": "[1]", "value": 100, "unit": "µg/mL"},
      {"measurement": "MICPI", "setting": "C. krusei ATCC 6258", "value": 50, "unit": "µg/mL"},
      {"measurement": "MICTI", "setting": "C. krusei ATCC 6258", "value": 100, "unit": "µg/mL"},
      {"measurement": "MICPI", "setting": "C. albicans SC5314", "value": 50, "unit": "µg/mL"},
      {"measurement": "MICTI", "setting": "C. albicans SC5314", "value": 100, "unit": "µg/mL"}
    ]}
  ]
}
